The NIST ThermoML archive (doi:10.1016/j.jct.2005.03.019)

Test: xn = mol fraction of the nth substance listed
Conditions: 101 kPa, Liquid, Vibrating tube method

CC1COC(=O)O1 (centres undefined) [4-methyl-1,3-dioxolan-2-one] + c1ccccc1
Conditions	mass density [kg/m3]
293.15 K, x2 = 0	1200.3
293.15 K, x2 = 0.049	1184.5
293.15 K, x2 = 0.1189	1162
293.15 K, x2 = 0.1749	1144.1
293.15 K, x2 = 0.2349	1125
293.15 K, x2 = 0.2949	1105.9
293.15 K, x2 = 0.3649	1083.6
293.15 K, x2 = 0.4248	1064.6
293.15 K, x2 = 0.4959	1041.9
293.15 K, x2 = 0.5529	1023.8
293.15 K, x2 = 0.6249	1000.7
293.15 K, x2 = 0.6934	978.6
293.15 K, x2 = 0.7539	959
293.15 K, x2 = 0.8135	939.6
293.15 K, x2 = 0.8622	923.6
293.15 K, x2 = 0.9248	902.9
303.15 K, x2 = 0	1180.6
303.15 K, x2 = 0.0487	1165.3
303.15 K, x2 = 0.1273	1140.9
303.15 K, x2 = 0.1841	1123.3
303.15 K, x2 = 0.2487	1103.3
303.15 K, x2 = 0.3127	1083.6
303.15 K, x2 = 0.3749	1064.4
303.15 K, x2 = 0.4364	1045.4
303.15 K, x2 = 0.4821	1031.4
303.15 K, x2 = 0.5428	1012.6
303.15 K, x2 = 0.6038	993.7
303.15 K, x2 = 0.6782	970.5
303.15 K, x2 = 0.7465	949.1
303.15 K, x2 = 0.8246	924.4
303.15 K, x2 = 0.8846	905.3
303.15 K, x2 = 0.9381	888.1
313.15 K, x2 = 0	1161.3
313.15 K, x2 = 0.0537	1145
313.15 K, x2 = 0.1295	1122
313.15 K, x2 = 0.1649	1111.4
313.15 K, x2 = 0.2359	1090
313.15 K, x2 = 0.3139	1066.7
313.15 K, x2 = 0.3619	1052.3
313.15 K, x2 = 0.4143	1036.6
313.15 K, x2 = 0.4829	1016.1
313.15 K, x2 = 0.5498	996.1
313.15 K, x2 = 0.625	973.4
313.15 K, x2 = 0.6821	956.2
313.15 K, x2 = 0.7492	935.8
313.15 K, x2 = 0.8247	912.6
313.15 K, x2 = 0.8732	897.6
313.15 K, x2 = 0.9348	878.4
323.15 K, x2 = 0	1142.4
323.15 K, x2 = 0.0598	1124.7
323.15 K, x2 = 0.131	1103.7
323.15 K, x2 = 0.1856	1087.7
323.15 K, x2 = 0.2438	1070.7
323.15 K, x2 = 0.3257	1046.8
323.15 K, x2 = 0.3987	1025.6
323.15 K, x2 = 0.4589	1008.1
323.15 K, x2 = 0.5156	991.6
323.15 K, x2 = 0.5687	976.1
323.15 K, x2 = 0.6145	962.7
323.15 K, x2 = 0.6647	948
323.15 K, x2 = 0.7365	926.8
323.15 K, x2 = 0.7965	909
323.15 K, x2 = 0.8567	891
323.15 K, x2 = 0.9267	869.8
333.15 K, x2 = 0	1124
333.15 K, x2 = 0.0592	1106.9
333.15 K, x2 = 0.1281	1087
333.15 K, x2 = 0.1834	1071.2
333.15 K, x2 = 0.2487	1052.6
333.15 K, x2 = 0.3279	1030.1
333.15 K, x2 = 0.3987	1010
333.15 K, x2 = 0.4598	992.7
333.15 K, x2 = 0.5139	977.4
333.15 K, x2 = 0.5533	966.2
333.15 K, x2 = 0.6138	949
333.15 K, x2 = 0.6623	935.1
333.15 K, x2 = 0.7246	917.3
333.15 K, x2 = 0.7749	902.7
333.15 K, x2 = 0.8568	878.9
333.15 K, x2 = 0.9248	858.9
343.15 K, x2 = 0	1106
343.15 K, x2 = 0.0638	1087.9
343.15 K, x2 = 0.1139	1073.8
343.15 K, x2 = 0.1756	1056.4
343.15 K, x2 = 0.2439	1037.4
343.15 K, x2 = 0.3178	1016.9
343.15 K, x2 = 0.3875	997.6
343.15 K, x2 = 0.4583	978
343.15 K, x2 = 0.5076	964.3
343.15 K, x2 = 0.5586	950.2
343.15 K, x2 = 0.6246	931.9
343.15 K, x2 = 0.6981	911.4
343.15 K, x2 = 0.7528	896.1
343.15 K, x2 = 0.8137	878.9
343.15 K, x2 = 0.8748	861.5
343.15 K, x2 = 0.9361	843.9
353.15 K, x2 = 0	1088.4
353.15 K, x2 = 0.053	1073.6
353.15 K, x2 = 0.1329	1051.5
353.15 K, x2 = 0.1822	1037.9
353.15 K, x2 = 0.2378	1022.7
353.15 K, x2 = 0.3327	996.9
353.15 K, x2 = 0.381	983.8
353.15 K, x2 = 0.4485	965.5
353.15 K, x2 = 0.5236	945.2
353.15 K, x2 = 0.5728	931.9
353.15 K, x2 = 0.6387	914
353.15 K, x2 = 0.6831	901.9
353.15 K, x2 = 0.7428	885.6
353.15 K, x2 = 0.7933	871.7
353.15 K, x2 = 0.8642	852.1
353.15 K, x2 = 0.9461	829.2

C=Cc1ccccc1 [styrene] + CC1COC(=O)O1
Conditions	mass density [kg/m3]
293.15 K, x1 = 0.0537	1180.1
293.15 K, x1 = 0.1389	1149.3
293.15 K, x1 = 0.1832	1134
293.15 K, x1 = 0.2341	1116.8
293.15 K, x1 = 0.294	1097.3
293.15 K, x1 = 0.3867	1068.4
293.15 K, x1 = 0.4379	1053.1
293.15 K, x1 = 0.5089	1032.5
293.15 K, x1 = 0.5799	1012.6
293.15 K, x1 = 0.6328	998.3
293.15 K, x1 = 0.6978	981.1
293.15 K, x1 = 0.7534	966.7
293.15 K, x1 = 0.8136	951.5
293.15 K, x1 = 0.8738	936.6
293.15 K, x1 = 0.9348	921.7
293.15 K, x1 = 1	906
303.15 K, x1 = 0.0613	1158.4
303.15 K, x1 = 0.1289	1134.8
303.15 K, x1 = 0.1743	1119.6
303.15 K, x1 = 0.2389	1098.5
303.15 K, x1 = 0.2976	1080.1
303.15 K, x1 = 0.3681	1058.8
303.15 K, x1 = 0.4178	1044.3
303.15 K, x1 = 0.4622	1031.7
303.15 K, x1 = 0.5239	1014.6
303.15 K, x1 = 0.5919	996.3
303.15 K, x1 = 0.6521	980.7
303.15 K, x1 = 0.7244	962.4
303.15 K, x1 = 0.7932	945.4
303.15 K, x1 = 0.8472	932.4
303.15 K, x1 = 0.9247	914
303.15 K, x1 = 1	896.4
313.15 K, x1 = 0.0473	1144.7
313.15 K, x1 = 0.1255	1118.3
313.15 K, x1 = 0.1922	1096.7
313.15 K, x1 = 0.2467	1079.7
313.15 K, x1 = 0.2844	1068.3
313.15 K, x1 = 0.3388	1052.2
313.15 K, x1 = 0.4032	1033.8
313.15 K, x1 = 0.4789	1013
313.15 K, x1 = 0.5376	997.4
313.15 K, x1 = 0.6198	976.4
313.15 K, x1 = 0.6638	965.4
313.15 K, x1 = 0.7398	946.9
313.15 K, x1 = 0.8133	929.5
313.15 K, x1 = 0.8756	915.1
313.15 K, x1 = 0.9456	899.1
313.15 K, x1 = 1	886.9
323.15 K, x1 = 0.0598	1122.3
323.15 K, x1 = 0.1431	1095.3
323.15 K, x1 = 0.1846	1082.4
323.15 K, x1 = 0.2572	1060.6
323.15 K, x1 = 0.3312	1039.2
323.15 K, x1 = 0.3841	1024.5
323.15 K, x1 = 0.4423	1008.8
323.15 K, x1 = 0.4928	995.6
323.15 K, x1 = 0.5634	977.7
323.15 K, x1 = 0.6143	965.1
323.15 K, x1 = 0.6635	953.3
323.15 K, x1 = 0.7187	940.3
323.15 K, x1 = 0.7749	927.3
323.15 K, x1 = 0.8353	913.6
323.15 K, x1 = 0.9244	893.8
323.15 K, x1 = 1	877.3
333.15 K, x1 = 0.0534	1106.6
333.15 K, x1 = 0.113	1087.7
333.15 K, x1 = 0.1682	1070.9
333.15 K, x1 = 0.2134	1057.5
333.15 K, x1 = 0.2843	1037.2
333.15 K, x1 = 0.3587	1016.8
333.15 K, x1 = 0.4238	999.7
333.15 K, x1 = 0.479	985.6
333.15 K, x1 = 0.5359	971.5
333.15 K, x1 = 0.5831	960.1
333.15 K, x1 = 0.6811	937.2
333.15 K, x1 = 0.7529	920.9
333.15 K, x1 = 0.8243	905.2
333.15 K, x1 = 0.8871	891.7
333.15 K, x1 = 0.9424	879.9
333.15 K, x1 = 1	867.8
343.15 K, x1 = 0.0648	1085.6
343.15 K, x1 = 0.1198	1068.9
343.15 K, x1 = 0.1823	1050.6
343.15 K, x1 = 0.2398	1034.3
343.15 K, x1 = 0.318	1013
343.15 K, x1 = 0.3832	996
343.15 K, x1 = 0.4429	981
343.15 K, x1 = 0.5138	963.8
343.15 K, x1 = 0.5824	947.6
343.15 K, x1 = 0.6529	931.6
343.15 K, x1 = 0.7039	920.3
343.15 K, x1 = 0.7735	905.2
343.15 K, x1 = 0.8423	890.7
343.15 K, x1 = 0.8814	882.5
343.15 K, x1 = 0.9476	868.9
343.15 K, x1 = 1	858.2
353.15 K, x1 = 0.0621	1069.6
353.15 K, x1 = 0.1257	1051
353.15 K, x1 = 0.1644	1040
353.15 K, x1 = 0.2312	1021.6
353.15 K, x1 = 0.3042	1002.2
353.15 K, x1 = 0.3718	985
353.15 K, x1 = 0.4423	967.7
353.15 K, x1 = 0.5021	953.5
353.15 K, x1 = 0.5539	941.6
353.15 K, x1 = 0.6243	925.9
353.15 K, x1 = 0.6912	911.4
353.15 K, x1 = 0.752	898.5
353.15 K, x1 = 0.8132	885.9
353.15 K, x1 = 0.8642	875.5
353.15 K, x1 = 0.9248	863.4
353.15 K, x1 = 1	848.6
